Literature values in US6491840B1, “Polymer compositions having specified PH for improved dispensing and improved stability of wrinkle reducing compositions and methods of use” (The Procter & Gamble Company, priority 2000, dated 2002).

## ClC=CC[N+]12CN3CN(CN(C3)C1)C2.[Cl-] [Dowicil 200, 1-(3-Chlorallyl)-3,5,7-triaza-1-azoniaadamantane chloride]
  solubility in water: freely soluble in water
